Measured values taken from ChEMBL document CHEMBL1151134, “Anti-AIDS agents, 1. Isolation and characterization of four new tetragalloylquinic acids as a new class of HIV reverse transcriptase inhibitors from tannic acid” (J Nat Prod, 1989).

Key:
[1] = tested on: Human immunodeficiency virus; test: Inhibition of HIV reverse transcriptase assessed as incorporation of [3H]dTMP at 100 uM
[2] = tested on: Human immunodeficiency virus; test: Inhibition of HIV reverse transcriptase assessed as incorporation of [3H]dTMP at 30 uM
[3] = tested on: Human immunodeficiency virus; test: Inhibition of HIV reverse transcriptase assessed as incorporation of [3H]dTMP at 10 uM
[4] = tested on: Human immunodeficiency virus 1; test: Antiviral activity against HIV1 3B replication in human H9 cells at 25 uM after 3 days by p24 antigen capture assay relative to control; type: functional; conditions: Human immunodeficiency virus 1, 3B, H9, 72 h
[5] = tested on: Human immunodeficiency virus 1; test: Antiviral activity against HIV1 3B replication in human H9 cells at 6.25 uM after 3 days by p24 antigen capture assay relative to control; type: functional; conditions: Human immunodeficiency virus 1, 3B, H9, 72 h
[6] = tested on: Human immunodeficiency virus 1; test: Antiviral activity against HIV1 3B replication in human H9 cells at 1.25 uM after 3 days by p24 antigen capture assay relative to control; type: functional; conditions: Human immunodeficiency virus 1, 3B, H9, 72 h
[7] = Cytotoxicity against human H9 cells at 25 uM; type: cell-based; conditions: read-out: INH
H9 [8] = test: Cytotoxicity against human H9 cells at 1.25 uM; type: cell-based; conditions: h9, 1.25 µM
H9 [9] = test: Cytotoxicity against human H9 cells at 6.25 uM; type: cell-based; conditions: h9, 6.25 µM
[10] = tested on: Human immunodeficiency virus; test: Inhibition of HIV reverse transcriptase assessed as incorporation of [3H]dTMP at 100 nM
[11] = tested on: Human immunodeficiency virus 1; test: Antiviral activity against HIV1 3B replication in human H9 cells at 30.8 uM after 3 days by p24 antigen capture assay relative to control; type: functional; conditions: Human immunodeficiency virus 1, 3B, H9, 72 h
[12] = tested on: Human immunodeficiency virus 1; test: Antiviral activity against HIV1 3B replication in human H9 cells at 7.7 uM after 3 days by p24 antigen capture assay relative to control; type: functional; conditions: Human immunodeficiency virus 1, 3B, H9, 72 h
[13] = tested on: Human immunodeficiency virus 1; test: Antiviral activity against HIV1 3B replication in human H9 cells at 1.5 uM after 3 days by p24 antigen capture assay relative to control; type: functional; conditions: Human immunodeficiency virus 1, 3B, H9, 72 h
[14] = tested on: Human immunodeficiency virus; test: Inhibition of HIV reverse transcriptase assessed as incorporation of [3H]dTMP at 0.6 uM
[15] = tested on: Human immunodeficiency virus; test: Inhibition of HIV reverse transcriptase assessed as incorporation of [3H]dTMP at 100 ug/ml
[16] = molecular target: T1, DNA polymerase alpha catalytic subunit (Homo sapiens) (UniProt P09884); test: Inhibition of human DNA polymerase alpha
T1 sequence (whole entry): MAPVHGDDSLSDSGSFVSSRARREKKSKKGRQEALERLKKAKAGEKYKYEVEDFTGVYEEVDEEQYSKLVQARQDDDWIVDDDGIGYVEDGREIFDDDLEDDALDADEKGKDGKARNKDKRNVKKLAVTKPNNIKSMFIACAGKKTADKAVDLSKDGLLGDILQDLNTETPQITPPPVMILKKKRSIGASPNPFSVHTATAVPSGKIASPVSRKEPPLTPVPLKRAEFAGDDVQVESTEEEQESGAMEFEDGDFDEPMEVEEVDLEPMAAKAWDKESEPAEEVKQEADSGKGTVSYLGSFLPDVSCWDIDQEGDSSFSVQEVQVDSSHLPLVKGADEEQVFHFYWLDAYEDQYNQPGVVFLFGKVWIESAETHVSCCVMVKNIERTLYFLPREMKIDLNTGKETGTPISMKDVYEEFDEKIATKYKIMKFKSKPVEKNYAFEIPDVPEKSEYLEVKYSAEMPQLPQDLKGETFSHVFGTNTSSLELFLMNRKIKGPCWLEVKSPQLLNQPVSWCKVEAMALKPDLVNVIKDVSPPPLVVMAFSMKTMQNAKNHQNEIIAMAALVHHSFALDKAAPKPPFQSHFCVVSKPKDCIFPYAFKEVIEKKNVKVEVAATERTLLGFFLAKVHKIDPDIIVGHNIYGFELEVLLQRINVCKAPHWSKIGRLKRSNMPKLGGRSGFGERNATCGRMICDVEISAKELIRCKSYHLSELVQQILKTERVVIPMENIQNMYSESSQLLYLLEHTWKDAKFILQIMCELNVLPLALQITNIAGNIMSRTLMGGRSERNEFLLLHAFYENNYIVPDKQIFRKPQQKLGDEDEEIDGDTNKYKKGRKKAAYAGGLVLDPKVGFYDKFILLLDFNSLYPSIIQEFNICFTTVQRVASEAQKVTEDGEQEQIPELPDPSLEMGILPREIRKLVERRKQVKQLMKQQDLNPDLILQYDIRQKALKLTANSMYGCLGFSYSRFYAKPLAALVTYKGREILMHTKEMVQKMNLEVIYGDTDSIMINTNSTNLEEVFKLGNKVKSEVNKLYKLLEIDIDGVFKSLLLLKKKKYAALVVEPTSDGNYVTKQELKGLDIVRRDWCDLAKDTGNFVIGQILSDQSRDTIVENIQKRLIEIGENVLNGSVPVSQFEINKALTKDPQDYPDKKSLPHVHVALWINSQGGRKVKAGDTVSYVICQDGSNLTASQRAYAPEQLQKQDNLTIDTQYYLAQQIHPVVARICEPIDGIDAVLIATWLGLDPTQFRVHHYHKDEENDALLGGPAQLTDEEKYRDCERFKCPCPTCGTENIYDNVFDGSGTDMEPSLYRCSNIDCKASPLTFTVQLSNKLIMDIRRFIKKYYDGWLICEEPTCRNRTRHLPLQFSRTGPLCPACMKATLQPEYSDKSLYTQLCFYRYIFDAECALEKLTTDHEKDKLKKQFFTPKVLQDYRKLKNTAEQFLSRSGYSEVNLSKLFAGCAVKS

[17] = molecular target: DNA polymerase beta (Homo sapiens) (UniProt P06746); test: Inhibition of human DNA polymerase beta
[18] = molecular target: T2, DNA polymerase subunit gamma-1 (Homo sapiens) (UniProt P54098); test: Inhibition of human DNA polymerase gamma
T2 sequence (whole entry): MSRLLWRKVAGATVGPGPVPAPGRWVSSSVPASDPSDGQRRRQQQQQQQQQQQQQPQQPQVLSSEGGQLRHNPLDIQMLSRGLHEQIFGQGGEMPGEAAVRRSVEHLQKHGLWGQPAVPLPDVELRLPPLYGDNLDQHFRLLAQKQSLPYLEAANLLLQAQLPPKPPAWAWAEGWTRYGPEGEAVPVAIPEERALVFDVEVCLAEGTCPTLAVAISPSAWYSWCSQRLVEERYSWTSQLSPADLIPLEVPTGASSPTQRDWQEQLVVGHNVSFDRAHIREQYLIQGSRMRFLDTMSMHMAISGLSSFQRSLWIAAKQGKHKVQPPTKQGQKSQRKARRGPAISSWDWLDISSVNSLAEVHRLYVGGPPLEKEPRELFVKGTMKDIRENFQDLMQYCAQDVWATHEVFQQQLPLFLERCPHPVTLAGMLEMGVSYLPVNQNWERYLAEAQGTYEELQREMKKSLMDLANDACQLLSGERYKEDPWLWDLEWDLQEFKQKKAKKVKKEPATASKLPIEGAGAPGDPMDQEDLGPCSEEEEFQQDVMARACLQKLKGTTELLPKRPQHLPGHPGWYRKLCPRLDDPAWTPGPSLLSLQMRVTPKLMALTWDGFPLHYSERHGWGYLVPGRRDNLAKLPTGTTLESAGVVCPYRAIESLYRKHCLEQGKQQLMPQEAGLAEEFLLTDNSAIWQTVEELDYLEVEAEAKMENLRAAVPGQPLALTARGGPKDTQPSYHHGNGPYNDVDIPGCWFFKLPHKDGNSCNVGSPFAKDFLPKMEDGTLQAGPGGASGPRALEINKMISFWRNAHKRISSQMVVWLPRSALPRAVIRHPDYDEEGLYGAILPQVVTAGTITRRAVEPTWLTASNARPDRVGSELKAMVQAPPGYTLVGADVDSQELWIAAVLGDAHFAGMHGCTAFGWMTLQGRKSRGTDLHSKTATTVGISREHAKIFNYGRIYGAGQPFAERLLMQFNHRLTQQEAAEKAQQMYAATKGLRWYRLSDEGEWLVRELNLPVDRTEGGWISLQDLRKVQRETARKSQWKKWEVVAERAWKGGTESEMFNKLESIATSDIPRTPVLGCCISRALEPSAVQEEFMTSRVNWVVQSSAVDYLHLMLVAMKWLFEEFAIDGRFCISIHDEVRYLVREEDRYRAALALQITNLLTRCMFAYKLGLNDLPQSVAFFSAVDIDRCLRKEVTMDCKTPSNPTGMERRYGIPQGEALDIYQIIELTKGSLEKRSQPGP

[19] = tested on: Human immunodeficiency virus; test: Inhibition of HIV reverse transcriptase

inhibition [1] [%] | inhibition [2] [%] | inhibition [3] [%] | SMILES | inhibition at 25 µM [4] [%] | inhibition at 6.25 µM [5] [%] | inhibition at 1.25 µM [6] [%] | cytotoxicity at 25 µM [7] [%] | Activity (H9 [8]) | Activity (H9 [9]) | also measured
89 | 70 | 55 | O=C(Oc1c(O)cc(C(=O)O[C@@H]2C[C@@](O)(C(=O)O)C[C@@H](OC(=O)c3cc(O)c(O)c(O)c3)[C@@H]2OC(=O)c2cc(O)c(O)c(O)c2)cc1O)c1cc(O)c(O)c(O)c1 | 63 | 50 | 28 | 0 | Non-toxic | Non-toxic | ID50 [16]: 0.065 µM; ID50 [17]: 21 µM; ID50 [18]: 2.5 µM; ID50 [19]: 29 µM
94 | 84 | 36 | O=C(O[C@@H]1C[C@](OC(=O)c2cc(O)c(O)c(O)c2)(C(=O)O)C[C@@H](OC(=O)c2cc(O)c(O)c(O)c2)[C@H]1OC(=O)c1cc(O)c(O)c(O)c1)c1cc(O)c(O)c(O)c1 | 66 | 52 | 15 | 25 | Non-toxic | Non-toxic | 

More lines, now with the values behind:

SMILES | inhibition [1] [%] | inhibition [2] [%] | inhibition [3] [%] | inhibition at 25 µM [4] [%] | inhibition at 6.25 µM [5] [%] | inhibition at 1.25 µM [6] [%] | cytotoxicity at 25 µM [7] [%] | Activity (H9 [8]) | Activity (H9 [9]) | also measured
O=C(Oc1c(O)cc(C(=O)O[C@@H]2C[C@](O)(C(=O)O)C[C@@H](OC(=O)c3cc(O)c(O)c(O)c3)[C@H]2OC(=O)c2cc(O)c(O)c(O)c2)cc1O)c1cc(O)c(O)c(O)c1 | 84 | 63 | 50 | 61 | 44 | 13 | 25 | Non-toxic | Non-toxic | 
Cc1cn([C@H]2C[C@H](N=[N+]=[N-])[C@@H](COP(=O)(O)OP(=O)(O)OP(=O)(O)O)O2)c(=O)[nH]c1=O |  |  |  |  |  |  |  |  |  | inhibition [10]: 64%
O=C(O[C@@H]1C[C@](O)(C(=O)O)C[C@@H](OC(=O)c2cc(O)c(O)c(O)c2)[C@H]1OC(=O)c1cc(O)c(O)c(O)c1)c1cc(O)c(O)c(O)c1 | 58 | 48 | 39 |  |  |  | 14 | Non-toxic | Non-toxic | inhibition at 30.8 µM [11]: 70%; inhibition at 7.7 µM [12]: 59%; inhibition at 1.5 µM [13]: 26%
O=C(Oc1c(O)cc(C(=O)O[C@H]2[C@H](OC(=O)c3cc(O)c(O)c(O)c3)C[C@](O)(C(=O)O)C[C@H]2OC(=O)c2cc(O)c(O)c(O)c2)cc1O)c1cc(O)c(O)c(O)c1 | 90 | 73 | 53 | 71 | 57 | 34 | 14 | Non-toxic | Non-toxic | 
O=C(O)P(=O)(O)O |  |  |  |  |  |  |  |  |  | inhibition [14]: 63%
O=C(OC[C@H]1O[C@@H](OC(=O)c2cc(O)c(O)c(OC(=O)c3cc(O)c(O)c(O)c3)c2)[C@H](OC(=O)c2cc(O)c(O)c(OC(=O)c3cc(O)c(O)c(O)c3)c2)[C@@H](OC(=O)c2cc(O)c(O)c(OC(=O)c3cc(O)c(O)c(O)c3)c2)[C@@H]1OC(=O)c1cc(O)c(O)c(OC(=O)c2cc(O)c(O)c(O)c2)c1)c1cc(O)c(O)c(OC(=O)c2cc(O)c(O)c(O)c2)c1 |  |  |  |  |  |  |  |  |  | inhibition [15]: 74%
